Test results reported in patent US20090305994A1, “Compounds Modulating Vegf Receptor and Uses Thereof” (priority 2005, published 2009).
No end group written: not given here.

What was measured:
VEGF receptors = VEGF receptors binding assay ([125I]-VEGF competition on BAEC membranes); set-up: species or system bovine
Experimental: VEGF receptors binding and activation. a) VEGF competitive binding on BAEC. 1 μg of membrane protein was plated with QK and [^125I]-VEGF (500000 cpm, 10^−10 M). b) KDR activation. After stimulation total KDR was immunoprecipitated from a whole-cell protein extracts and phospho-tyrosine was visualized by a specific antibody, anti-rabbit HRP-conjugated secondary antibody and standard chemiluminescence. c) Flt-1 activation. After stimulation total Flt-1 was immunoprecipitated from a whole-cell protein extracts and phospho-tyrosine was visualized by specific antibody, anti-rabbit HRP-conjugated secondary antibody and standard chemiluminescence.
VEGF receptors binding assay. Cells were homogenized in lysis buffer (12.5 mM Tris pH 6.8, 5 mM EDTA, 5 mM EGTA) and membranes were separated from the cytosol fraction by centrifugation. Membranes were suspended in binding buffer (75 mM Tris, 12.5 mM MgCl2, 2 mM EDTA) and an equal amount of membrane protein (1 μg) was plated in 96 well plates with QK (10^−13 to 10^−8 M) and [^125I]-VEGF (Amersham). VEGF binding was evaluated with a y-counter.
VEGF receptors binding assay. To verify the biological behavior of QK peptide, we tested its ability to compete for the binding sites of VEGF on cell membranes (FIG. 1a). We competed membranes, obtained from isolated BAEC, with iodinated VEGF and then with increasing amount of QK.

ERK1/2 = ERK1/2 activation in BAEC (western blot); assay type: cell-based, bovine; conditions: serum deprived BAEC, 15 minutes at 37° C.
Experimental: Effect of QK and VEGF15 on ERK1/2 activation. Serum deprived BAEC were treated with QK (a) or with VEGF 15 (b) in absence or in presence of VEGF165 (100 ng/ml) for 15 minutes at 37° C. and then dissolved in RIPA-SDS buffer. Total ERK1/2 and the phosphorylated form of ERK1/2 were visualized by specific antibodies.
Western blot. Cells were plated on six-well dishes and serum starved overnight. On the next day, cells were treated with different amount of peptide in absence or in presence of VEGF165 for 15 minutes at 37° C. and then dissolved in RIPA-SDS buffer (50 mM Tris-HCl (pH 7.5), 150 mM NaCl, 1% NP-40, 0.25% deoxycholate, 9.4 mg/50 ml sodium orthovanadate, […]). In some experiments, total KDR and Flt-1 were immunoprecipitated from an equal amount of whole-cell protein extracts using protein A/G agarose beads conjugated with antibodies raised against total KDR or Flt-1 (R&D). Proteins from whole-cell extracts or immunocomplexes were resolved by PAGE and transferred to nitrocellulose. Total extracellular signal-regulated kinase 1 and 2 (ERK1/2), serine-tyrosin phosphorylated ERK1/2, phospho-tyrosine (Cell signaling) and phospho-RB (p-RB) (Santacruz) were visualized by specific antibodies, anti-rabbit HRP-conjugated secondary antibody (Santacruz) and standard chemiluminescence (Pierce).
Activation of the proliferative intracellular pathways. We then explored whether QK is able to start the pathways of endothelial cell activation. It is well established that angiogenesis modulate by VEGF is largely ERK1/2 dependent, leading to DNA synthesis and cell proliferation (7). Accordingly, we assessed the effects of QK on this kinase. […] To verify whether ERK1/2 activation to QK results in cell proliferation, we studied cell proliferation indicators such as cell number, DNA synthesis and cyclin activation.

WKY rats = experiment: Ischemic hindlimb model, digital angiographies and blood flow determination; assay type: in vivo, rat; conditions: 14 days

binding to the VEGF receptor (VEGF receptors): does not bind to the receptor
Sequence: KVKFMDVYQRSYCHP (KVKFMDVYQRSYCHP-NH2) [VEGF15, natural peptide reproducing the VEGF helix 17-25, used as control peptide]
ERK1/2 activation (ERK1/2): had no effect on ERK activation
BEADS Ischemic to non ischemic (WKY rats; dyed beads dilution, muscle ratio, infusion 10^-7 M): 0.59 ± 0.15
ANGIOGRAPHY Number of TFC (WKY rats; ischemic hindlimb, chronic intrafemoral artery infusion 10^-7 M): 38 ± 2
